From patent publication US4897394A, “Antiviral combinations” (Burroughs Wellcome CO., priority 1986, dated 1990)

Experiments:
[1] = Acute toxicity (LD50), rats, oral; details: rat, in vivo
From the text: (§1) The LD50 values for acyclovir, dilazep and dipyridamole, referred to above are as follows: […]

[2] = tested on: herpes simplex type 1 (KOS strain); assay: Plaque reduction assay in Vero cells infected with herpes simplex type 1 (KOS strain); format: cell-based; details: single agent; for Average Plaque Count: controls = 480
Procedure: The antiviral activity was determined using a plaque reduction assay. Petri plates were seeded with Vero cells which were then allowed to grow to confluency. […] The inhibitors, either alone or in the indicated combinations, were dissolved to give the indicated concentrations in minimal essential medium containing 2% heat inactivated fetal calf serum and 0.5% human immune serum globulin. One hour after infection the solutions (10 ml per plate) were added to the cultures. Three days later the cultures were foramlin-fixed and stained with crystal violet, and the plaques were counted.

[3] = Acute toxicity (LD50), mice, oral; details: mouse, in vivo
From the text: as §1

[4] = Human alphaherpesvirus 1, Vero, Conc. 5.0 μM
[5] = Human alphaherpesvirus 1, Vero, Conc. 1.0 μM

| SMILES | Average Plaque Count ([2]; Conc. 5.0 μM) | inhibition at 5 µM [2, 4] | Average Plaque Count ([2]; Conc. 1.0 μM) | inhibition at 1 µM [2, 5] | further results |
| --- | --- | --- | --- | --- | --- |
| OCCN(CCO)c1nc(N2CCCCC2)c2nc(N(CCO)CCO)nc(N3CCCCC3)c2n1 [Dipyridamole] | 474.0 | 1% | – | – | LD50 [1]: 8400 mg/kg |
| COc1cc(C(=O)OCCCN2CCCN(CCCOC(=O)c3cc(OC)c(OC)c(OC)c3)CC2)cc(OC)c1OC [Dilazep] | – | – | 442.0 | 8% | LD50 ([3]; male mice, oral): 3740 mg/kg |
| O=[N+]([O-])c1ccc(CSc2ncnc3c2ncn3[C@@H]2O[C@H](CO)[C@@H](O)[C@H]2O)cc1 [Compound A, 6-[(4-nitrobenzyl)thio]-9-(β-D-ribofuranosyl)purine] | – | – | – | – | Average Plaque Count ([2]; Conc. 2.0 μM): 484.0; inhibition at 2 µM ([2]; Human alphaherpesvirus 1, Vero, Conc. 2.0 μM): 0% |
| Nc1nc2c(ncn2COCCO)c(=O)[nH]1 [ACV, 9-[(2-hydroxyethoxy)methyl]guanine] | 29.5 | 93.8% | 279.5 | 41.8% | LD50 ([3]; mice oral): > 10000 mg/kg; Average Plaque Count ([2]; Conc. 2.5 μM): 133.5; inhibition at 2.5 µM ([2]; Human alphaherpesvirus 1, Vero, Conc. 2.5 μM): 72.3% |
